Experimental data taken from ChEMBL document CHEMBL4049416, “Synthesis and anti-cancer activities of new sulfonamides 4-substituted-triazolyl nucleosides” (Bioorg Med Chem Lett, 2017).
Calls of active or inactive are those of the source. The calls are words filed in the database; no cut-off is given here.

Tests used:
[1] = test system: RCC4; experiment: Anticancer activity against human RCC4 cells after 48 hrs by XTT assay; assay type: functional, cell-based; settings: RCC4, 48 h
[2] = test system: MDA-MB-231; experiment: Anticancer activity against human MDA-MB-231 cells after 48 hrs by XTT assay; assay type: functional, cell-based; settings: MDA-MB-231, 48 h
[3] = Solubility of the compound; assay type: physicochemical
[4] = Micelle aggregation by the compound
[5] = test system: RCC4; experiment: Induction of autophagy in human RCC4 cells assessed as increase in LC3 conversion at 1 mM after 48 hrs by Western blot method; assay type: functional, cell-based
[6] = Potency index, ratio of AICAR IC50 to compound IC50 for human RCC4 cells; assay type: functional
[7] = test system: MDA-MB-231; experiment: Potency index, ratio of AICAR IC50 to compound IC50 for human MDA-MB-231 cells; assay type: functional
[8] = test system: RCC4; experiment: Anticancer activity against human RCC4 cells at 50 uM after 48 hrs by XTT assay; assay type: functional, cell-based
[9] = test system: MDA-MB-231; experiment: Anticancer activity against human MDA-MB-231 cells at 50 uM after 48 hrs by XTT assay; assay type: functional, cell-based
[10] = test system: RCC4; experiment: Induction of apoptosis in human RCC4 cells assessed as PARP cleavage at 20 uM after 48 hrs by Western blot method; assay type: functional, cell-based
[11] = test system: RCC4; experiment: Induction of autophagy in human RCC4 cells assessed as increase in LC3 lipidation at 20 uM after 48 hrs by Western blot method; assay type: functional, cell-based
[12] = test system: RCC4; experiment: Induction of autophagy in human RCC4 cells assessed as increase in LC3 cleavage at 20 uM after 48 hrs by Western blot method; assay type: functional, cell-based

SMILES | IC50 [1] [µM] | IC50 [2] [µM] | other results
CCCCN(Cc1cn([C@@H]2O[C@H](COC(C)=O)[C@@H](OC(C)=O)[C@H]2OC(C)=O)nn1)S(C)(=O)=O | 250 | 225 | solubility [3]: Soluble; Activity [4]: inactive
CC(=O)OC[C@H]1O[C@@H](O[C@H]2[C@H](OC(C)=O)[C@@H](OC(C)=O)[C@@H](n3cc(CN(c4ccc(C#N)cc4)S(C)(=O)=O)nn3)O[C@@H]2COC(C)=O)[C@H](OC(C)=O)[C@@H](OC(C)=O)[C@H]1OC(C)=O | 50 | 70 | –
CS(=O)(=O)N(Cc1cn([C@@H]2O[C@H](CO)[C@@H](O)[C@H](O)[C@H]2O)nn1)c1ccc(C#N)cc1 | 200 | 185 | –
CS(=O)(=O)N(Cc1cn([C@@H]2O[C@H](CO)[C@@H](O[C@H]3O[C@H](CO)[C@@H](O)[C@H](O)[C@H]3O)[C@H](O)[C@H]2O)nn1)c1ccc(C#N)cc1 | 250 | 250 | –
CC(=O)OC[C@H]1O[C@@H](n2cc(CN(c3ccc(C#N)cc3)S(C)(=O)=O)nn2)[C@H](OC(C)=O)[C@@H]1OC(C)=O | 235 | 100 | –
CCCCCCCCCCCCCCN(Cc1cn([C@@H]2O[C@H](COC(C)=O)[C@@H](OC(C)=O)[C@H]2OC(C)=O)nn1)S(C)(=O)=O | 29 | 31 | solubility [3]: Soluble; Activity [4]: inactive
COC(=O)C(C)(C)N(Cc1cn([C@@H]2O[C@H](COC(C)=O)[C@@H](OC(C)=O)[C@H]2OC(C)=O)nn1)S(C)(=O)=O | 50 | 240 | –
CCS(=O)(=O)N(Cc1cn([C@@H]2O[C@H](COC(C)=O)[C@@H](OC(C)=O)[C@H](OC(C)=O)[C@H]2OC(C)=O)nn1)c1ccccc1 | 175 | 155 | –
CCS(=O)(=O)N(Cc1cn([C@@H]2O[C@H](COC(C)=O)[C@@H](OC(C)=O)[C@H](OC(C)=O)[C@H]2OC(C)=O)nn1)c1ccc(Cl)cc1 | > 250 | > 250 | –
CCS(=O)(=O)N(Cc1cn([C@@H]2O[C@H](COC(C)=O)[C@@H](OC(C)=O)[C@H]2OC(C)=O)nn1)c1ccc(Cl)cc1 | 250 | 250 | –
COc1cccc(N(Cc2cn([C@@H]3O[C@H](COC(C)=O)[C@@H](OC(C)=O)[C@H](OC(C)=O)[C@H]3OC(C)=O)nn2)S(C)(=O)=O)c1 | 200 | 220 | –
CC(=O)OC[C@H]1O[C@@H](n2cc(CN(c3ccccc3)S(=O)(=O)c3ccccc3)nn2)[C@H](OC(C)=O)[C@@H]1OC(C)=O | 150 | 100 | –
NC(=O)c1ncn([C@@H]2O[C@H](CO)[C@@H](O)[C@H]2O)c1N [ACADESINE] | 250 | 1000 | Activity [5]: Active
CC(=O)OC[C@H]1O[C@@H](n2cc(CN(c3ccc(C#N)cc3)S(C)(=O)=O)nn2)[C@H](OC(C)=O)[C@@H](OC(C)=O)[C@@H]1O[C@H]1O[C@H](COC(C)=O)[C@@H](OC(C)=O)[C@H](OC(C)=O)[C@H]1OC(C)=O | 230 | 230 | –
CCS(=O)(=O)N(Cc1cn([C@H]2O[C@H](COC(C)=O)[C@@H](O[C@@H]3O[C@H](COC(C)=O)[C@H](OC(C)=O)[C@H](OC(C)=O)[C@H]3OC(C)=O)[C@H](OC(C)=O)[C@H]2OC(C)=O)nn1)c1ccc(Cl)cc1 | 160 | 150 | –
CCS(=O)(=O)N(Cc1cn([C@H]2O[C@H](CO)[C@@H](O[C@@H]3O[C@H](CO)[C@H](O)[C@H](O)[C@H]3O)[C@H](O)[C@H]2O)nn1)c1ccc(Cl)cc1 | 200 | 215 | –
CS(=O)(=O)N(Cc1cn([C@@H]2O[C@H](CO)[C@@H](O)[C@H]2O)nn1)c1ccc(C#N)cc1 | 250 | > 250 | –

SMILES | IC50 [1] [µM] | IC50 [2] [µM] | other results
CS(=O)(=O)N(Cc1cn([C@H]2O[C@H](CO)[C@@H](O[C@@H]3O[C@H](CO)[C@H](O)[C@H](O)[C@H]3O)[C@H](O)[C@H]2O)nn1)c1ccc(C#N)cc1 | 120 | 250 | –
CC(=O)OC[C@H]1O[C@@H](n2cc(CN(c3ccc(Cl)cc3)S(=O)(=O)c3ccccc3)nn2)[C@H](OC(C)=O)[C@@H](OC(C)=O)[C@@H]1OC(C)=O | 115 | 135 | –
CC(=O)OC[C@H]1O[C@@H](n2cc(CN(c3ccc(C)cc3)S(=O)(=O)c3ccccc3)nn2)[C@H](OC(C)=O)[C@@H](OC(C)=O)[C@@H]1OC(C)=O | 130 | 180 | –
COc1cccc(N(Cc2cn([C@@H]3O[C@H](COC(C)=O)[C@@H](OC(C)=O)[C@H]3OC(C)=O)nn2)S(C)(=O)=O)c1 | 190 | 160 | –
CC(=O)OC[C@H]1O[C@@H](n2cc(CN(c3ccc(C#N)cc3)S(C)(=O)=O)nn2)[C@@H](OC(C)=O)[C@@H](OC(C)=O)[C@@H]1OC(C)=O | 240 | 230 | –
COC(=O)C(C)(C)N(Cc1cn([C@@H]2O[C@H](COC(C)=O)[C@@H](OC(C)=O)[C@H](OC(C)=O)[C@H]2OC(C)=O)nn1)S(C)(=O)=O | 240 | 225 | –
CC(=O)OC[C@H]1O[C@@H](n2cc(CN(c3ccc(Cl)cc3)S(=O)(=O)c3ccccc3)nn2)[C@H](OC(C)=O)[C@@H]1OC(C)=O | 250 | 250 | –
COC(=O)CN(Cc1cn([C@@H]2O[C@H](COC(C)=O)[C@@H](OC(C)=O)[C@H](OC(C)=O)[C@H]2OC(C)=O)nn1)S(C)(=O)=O | > 250 | > 250 | –
CCCCCCN(Cc1cn([C@@H]2O[C@H](COC(C)=O)[C@@H](OC(C)=O)[C@H]2OC(C)=O)nn1)S(C)(=O)=O | 140 | 225 | solubility [3]: Soluble; Activity [4]: inactive
CC(=O)OC[C@H]1O[C@@H](n2cc(CN(c3ccc(C)cc3)S(=O)(=O)c3ccccc3)nn2)[C@H](OC(C)=O)[C@@H]1OC(C)=O | 230 | 205 | –
CC(=O)OC[C@H]1O[C@@H](n2cc(CN(c3ccc(C#N)cc3)S(C)(=O)=O)nn2)[C@H](OC(C)=O)[C@@H](OC(C)=O)[C@H]1OC(C)=O | 170 | 100 | –
CC(=O)OC[C@H]1O[C@@H](n2cc(CN(c3ccc(C#N)cc3)S(C)(=O)=O)nn2)[C@H](OC(C)=O)[C@@H](OC(C)=O)[C@@H]1OC(C)=O | 120 | 215 | –
CCN(CC)CCNC(=O)c1c(C)[nH]c(/C=C2\C(=O)Nc3ccc(F)cc32)c1C [SUNITINIB] | 4 | 6 | –
COC(=O)CN(Cc1cn([C@@H]2O[C@H](COC(C)=O)[C@@H](OC(C)=O)[C@H]2OC(C)=O)nn1)S(C)(=O)=O | 125 | 250 | –
CC(=O)OC[C@H]1O[C@@H](n2cc(CN(c3ccccc3)S(C)(=O)=O)nn2)[C@H](OC(C)=O)[C@@H]1OC(C)=O | 180 | 250 | –
CCCCCCCCCCCCCCCCN(Cc1cn([C@@H]2O[C@H](COC(C)=O)[C@@H](OC(C)=O)[C@H]2OC(C)=O)nn1)S(C)(=O)=O | 13 | 15 | Ratio IC50 [6]: 19; Ratio IC50 [7]: 66; Activity [8]: Active; Activity [9]: Active; Activity [10]: Active; Activity [11]: Active; Activity [12]: Active; solubility [3]: Soluble; Activity [4]: inactive
